{"source": "patent US6423700B1", "about": "“17-halogenated 19-nor steroids, method and intermediates for preparing same, use as medicines and pharmaceutical compositions containing same” (Aventis Pharma S.A., priority 1998, dated 2002)", "key": {"[1]": {"system": "MCF-7 human mammary cells", "test": "Effect on the proliferation of mammary cells (MCF-7, determination of the DNA)", "assay_type": "cell-based", "parameters": "key: Agonist: the effect of the oestradiol at 10^−10M (cell growth in the presence of oestradiol less cell growth in the presence of the solvent) determines the 100% agonist activity; Inactive: molecules inducing an identical cell growth to that observed with the solvent alone are classified as “inactive”; Inhibitor: those inducing a lower cell growth to that observed with the solvent are classified as “inhibitor”", "details": "7 days culture in steroid-free medium; compared with oestradiol at 10^−10M = 100% agonist activity", "experimental": "Effect on the Proliferation of Mammary Cells The proliferative activity of the molecules is studied in comparison to that of oestradiol on MCF-7 human mammary cells in culture. […] Cells undergo this severance two days before the start of the test. After 7 days culture in the presence of the products to be studied, the cell proliferation is evaluated by determination of the DNA. In each test, the effect of the oestradiol at 10^−10M (cell growth in the presence of oestradiol less cell growth in the presence of the solvent) determines the 100% agonist activity. The activity of the molecules is evaluated in comparison to this internal control."}, "[2]": {"system": "ovariectomized female rat", "test": "Bone impact study in the ovariectomized female rat at the age of 3 months (tibia BMD, uterus weight, serum cholesterol)", "assay_type": "in vivo", "details": "OVX rat; for UTERUS Weight % / Cholesterol %: 4 weeks; for UTERUS Weight %: increase in % of uterus weight of OVX animals receiving solvent; for Cholesterol %: serum cholesterol change in % relative to OVX animals receiving solvent; for TIBIA BONE BMD %: OVX=0, SHAM=100", "experimental": "Bone impact study of a product in the ovariectomized female rat at the age of 3 months The compounds are tested in order to determine their effect on the bone mass and on the formation and resorption activity in the model of the ovariectomized rat at the age of 3 months. The animals are treated in a preventive fashion. [table] 1—Product to be tested: Product of Example 1. vehicle(s): corn oil, 0.5% methylcellulose number of administrations: once/day; 5 days/week for 4 weeks administration route: oral route for the product 2—Reference product: 17β oestradiol is administered by subcutaneous route at a dose of 0.1 or 0.01 mg/kg/d in solution in a mixture of corn oil-benzyl alcohol (99:1, v/v) under a volume of 0.2 ml/kg. The study is carried out with female rats ovariectomized at the age of 3 months. The animals are kept in an air-conditioned room (temperature 20° C.±2° C.) and grouped by 4 into boxes. The animals receive, ad libitum, demineralized water and compressed foods (pellets: AO4CR-10 UAR). The 3 month old female rats weighing approximately 250 g are ovariectomized under anaesthesia with Imalgene 1000, at a dose of 100 mg/kg by intraperitoneal route (i.p.) and under a volume of 1 ml/kg. They also receive Nembutal (3 mg/kg i.p. under a volume of 0.3 ml/kg). The effects of the products are determined in a preventive treatment. They are administered immediately after the ovariectomy. Animals are distributed into groups of 8. Group 1: “SHAM” control rats receiving the vehicle or vehicles. Group 2: “OVX” control rats receiving the vehicle or vehicles. Groups X: “OVX” rats receiving respectively defined doses of the product or products to be tested. At the end of 4 weeks (duration of the study) the animals are decapitated by guillotine. The serums collected after centrifugation are preserved at −20° C. A lipidic balance will be established from the serous determinations of total cholesterol, of triglycerides and of phospholipids on a 500 μl aliquot of serum. Lowering of the serous cholesterol level is expressed in % relative to the level shown by the ovariectomized animals receiving only the solvent. The uteri are removed. The latter are weighed. The increase in weight is expressed in % of the weight of the uterus of ovariectomized animals receiving only the solvent. The bone mass (BMD or bone mineral density) is measured by biphotonic dual energy X-ray absorptiometry (DEXA). The measurements are carried out on bone excized and cleaned of all soft tissue. The BMD (bone mineral density) is measured on the whole bone as well as on the metaphyseal part at the level of the proximal extremity for the left tibia. This zone is defined as being the region which is richest in trabecular bone; and consequently, is the most sensitive to variations in bone volume and bone mineral density. The results are expressed in % according to the formula: […]"}, "[3]": {"details": "0.3 mg/kg po, listed as Ex. 1, 0.3 mg/kg"}}, "note": "Where “and” joins values, the source holds several entries; their conditions need not be identical. Identical values can stand only once."}
{"smiles": "COc1ccc2c(c1)CC[C@@H]1[C@@H]2[C@@H](c2ccc(OCCN3CCCC3)cc2)C[C@]2(C)[C@H](F)CC[C@@H]12", "values": [{"measurement": "melting point", "result": 132, "unit": "°C"}]}
{"smiles": "C[C@]12C[C@H](c3ccc(OCCN4CCCCC4)cc3)[C@@H]3c4ccc(O)cc4CC[C@H]3[C@@H]1CC=C2I.Cl", "values": [{"measurement": "melting point", "result": 260, "unit": "°C"}]}
{"smiles": "CC1CCN(CCOc2ccc([C@H]3C[C@]4(C)[C@H](F)CC[C@H]4[C@@H]4CCc5cc(O)ccc5[C@H]43)cc2)CC1.Cl", "values": [{"measurement": "melting point", "result": 200, "unit": "°C"}]}
{"smiles": "C[C@]12C[C@H](c3ccc(OCCN4CCCCC4)cc3)[C@@H]3c4ccc(O)cc4CC[C@H]3[C@@H]1CC[C@H]2F", "note": "[Example 1, 17 alpha-fluoro-11 beta-[4-[2-(1-piperidinyl)ethoxy]phenyl]-estra-1,3,5(10)-trien-3-ol]", "values": [{"measurement": "ACTIVITY (proliferative activity on MCF-7 cells)", "setting": "[1]", "result": "Inactive"}, {"measurement": "UTERUS Weight %", "setting": "[2]; 0.1 mg/kg po", "result": 67, "unit": "%"}, {"measurement": "Cholesterol %", "setting": "[2]; 0.1 mg/kg po", "result": "−49", "unit": "%"}, {"measurement": "TIBIA BONE BMD %", "setting": "[2]; 0.1 mg/kg po, once/day 5 days/week 4 weeks", "result": 57, "unit": "%"}, {"measurement": "UTERUS Weight %", "setting": "[2]; [3]", "result": "70% and 41%"}, {"measurement": "Cholesterol %", "setting": "[2]; [3]", "result": "−59% and −51%"}, {"measurement": "TIBIA BONE BMD %", "setting": "[2]; 0.3 mg/kg po, once/day 5 days/week 4 weeks, listed as Ex. 1, 0.3 mg/kg", "result": "71% and 73%"}, {"measurement": "UTERUS Weight %", "setting": "[2]; 1.0 mg/kg po", "result": 93, "unit": "%"}, {"measurement": "Cholesterol %", "setting": "[2]; 1.0 mg/kg po", "result": "−61", "unit": "%"}, {"measurement": "TIBIA BONE BMD %", "setting": "[2]; 1.0 mg/kg po, once/day 5 days/week 4 weeks", "result": 72, "unit": "%"}]}
{"smiles": "C[C@]12C[C@H](c3ccc(OCCN4CCCCC4)cc3)[C@@H]3c4ccc(O)cc4CC[C@H]3[C@@H]1CC[C@H]2F.Cl", "note": "[Example 2, 17 alpha-fluoro-11-beta-[4-[2-(1-piperidinyl)ethoxy]phenyl]-estra-1,3,5(10)-trien-3-ol hydrochloride]", "values": [{"measurement": "ACTIVITY (proliferative activity on MCF-7 cells)", "setting": "[1]", "result": "Inactive"}]}
{"smiles": "C[C@]12CC[C@@H]3c4ccc(O)cc4CC[C@H]3[C@@H]1CC[C@@H]2O", "note": "[Oestradiol, 17β oestradiol, reference compound]", "values": [{"measurement": "ACTIVITY (proliferative activity on MCF-7 cells)", "setting": "[1]", "result": "Agonist"}, {"measurement": "TIBIA BONE BMD %", "setting": "[2]; 0.01 mg/kg s.c., 4 weeks preventive", "result": 95, "unit": "%"}, {"measurement": "UTERUS Weight %", "setting": "[2]; 0.01 mg/kg s.c.", "result": 317, "unit": "%"}, {"measurement": "Cholesterol %", "setting": "[2]; 0.01 mg/kg s.c.", "result": "−16", "unit": "%"}, {"measurement": "TIBIA BONE BMD %", "setting": "[2]; 0.1 mg/kg s.c., 4 weeks preventive", "result": 139, "unit": "%"}, {"measurement": "UTERUS Weight %", "setting": "[2]; 0.1 mg/kg s.c.", "result": 220, "unit": "%"}, {"measurement": "Cholesterol %", "setting": "[2]; 0.1 mg/kg s.c.", "result": "−3", "unit": "%"}]}
